What follows are compounds tested against recombinant human LRRK2 (catalytic domain only [amino acids 970-2527], GST-tagged) (Homo sapiens (Human), UniProt Q5S007) (assay: LRRK2 Enzymatic Assay). Settings: LRRKtide substrate, [32P]-ATP.
Assay type: biochemical
Procedure, shortened: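 Radiometric P81 filter-binding read-out of [32P]-ATP transfer to LRRKtide (20 μM) by 30 nM GST-LRRK2 970-2527, 2 h at room temperature after 20 min compound preincubation (10 μM–0.5 nM, 1% DMSO). IC50 derived from % remaining activity versus DMSO.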

recombinant human LRRK2 (catalytic domain only [amino acids 970-2527], GST-tagged), sequence (Q5S007 970-2527): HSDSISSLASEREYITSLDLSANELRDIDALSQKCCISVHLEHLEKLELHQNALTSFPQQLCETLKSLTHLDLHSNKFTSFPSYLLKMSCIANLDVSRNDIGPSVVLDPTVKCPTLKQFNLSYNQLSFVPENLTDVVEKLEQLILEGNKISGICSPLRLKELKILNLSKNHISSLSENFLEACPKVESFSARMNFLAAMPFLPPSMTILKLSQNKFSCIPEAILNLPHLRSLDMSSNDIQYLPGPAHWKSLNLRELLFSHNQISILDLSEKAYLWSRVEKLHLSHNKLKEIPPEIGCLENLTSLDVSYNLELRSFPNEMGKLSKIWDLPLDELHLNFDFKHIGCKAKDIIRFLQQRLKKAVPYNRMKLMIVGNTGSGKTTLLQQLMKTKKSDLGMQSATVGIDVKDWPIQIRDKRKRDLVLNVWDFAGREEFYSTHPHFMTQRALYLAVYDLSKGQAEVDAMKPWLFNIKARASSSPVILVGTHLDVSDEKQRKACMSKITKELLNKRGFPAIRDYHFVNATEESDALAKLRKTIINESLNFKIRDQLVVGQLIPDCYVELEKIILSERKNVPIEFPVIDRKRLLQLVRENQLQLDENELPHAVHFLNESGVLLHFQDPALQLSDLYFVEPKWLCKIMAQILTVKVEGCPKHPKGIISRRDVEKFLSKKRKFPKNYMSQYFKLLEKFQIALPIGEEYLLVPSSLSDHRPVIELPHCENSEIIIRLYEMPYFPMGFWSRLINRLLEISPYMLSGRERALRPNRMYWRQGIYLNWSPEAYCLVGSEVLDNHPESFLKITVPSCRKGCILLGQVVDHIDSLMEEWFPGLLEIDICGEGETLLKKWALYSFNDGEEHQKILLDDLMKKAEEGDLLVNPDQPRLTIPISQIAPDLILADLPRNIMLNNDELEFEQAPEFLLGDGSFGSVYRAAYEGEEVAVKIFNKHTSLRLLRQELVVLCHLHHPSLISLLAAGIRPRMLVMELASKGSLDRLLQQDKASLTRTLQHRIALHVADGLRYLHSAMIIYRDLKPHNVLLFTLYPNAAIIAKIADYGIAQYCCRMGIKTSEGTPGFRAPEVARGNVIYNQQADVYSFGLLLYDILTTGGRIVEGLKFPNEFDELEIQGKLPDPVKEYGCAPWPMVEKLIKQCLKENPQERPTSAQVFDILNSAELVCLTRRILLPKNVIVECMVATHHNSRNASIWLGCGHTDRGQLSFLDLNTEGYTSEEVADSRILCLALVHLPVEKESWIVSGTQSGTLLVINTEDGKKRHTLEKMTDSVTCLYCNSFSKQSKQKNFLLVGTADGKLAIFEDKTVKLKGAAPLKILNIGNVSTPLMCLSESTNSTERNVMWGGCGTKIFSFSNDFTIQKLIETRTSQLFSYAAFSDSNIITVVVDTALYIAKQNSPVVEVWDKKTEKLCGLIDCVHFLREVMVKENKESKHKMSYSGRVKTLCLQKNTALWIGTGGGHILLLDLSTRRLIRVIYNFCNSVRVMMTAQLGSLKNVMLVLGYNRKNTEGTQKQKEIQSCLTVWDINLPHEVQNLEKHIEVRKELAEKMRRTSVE

IC50 [nM] | Compound
< 50 | Clc1cnc(Nc2ccc(N3CCOCC3)cc2)nc1OCC1CCCCC1 [Example 147, 5-chloro-4-(cyclohexylmethoxy)-N-(4-morpholinophenyl)pyrimidin-2-amine]
< 50 | Cc1nn(C(C)(C)C#N)cc1Nc1ncc(Cl)c(OCC2CC(C)OC(C)C2)n1 (stereo not shown) [Example 149, 2-(4-((5-chloro-4-((2,6-dimethyltetrahydro-2H-pyran-4-yl)methoxy)pyrimidin-2-yl)amino)-3-methyl-1H-pyrazol-1-yl)-2-methylpropanenitrile]
< 50 | Cc1nn(C2CC(C#N)C2)cc1Nc1ncc(Cl)c(OCC2CC3(COC3)C2)n1 (stereo not shown) [Example 151, 3-(4-((4-((2-oxaspiro[3.3]heptan-6-yl)methoxy)-5-chloropyrimidin-2-yl)amino)-3-methyl-1H-pyrazol-1-yl)cyclobutane-1-carbonitrile]
< 50 | COc1cnc(Nc2ccc(N3CCOCC3)cc2)nc1OCC1CCCCC1 [Example 152, 4-(cyclohexylmethoxy)-5-methoxy-N-(4-morpholinophenyl)pyrimidin-2-amine]
50 to 200 | Cc1nn(C(C)(C)C#N)cc1Nc1ncc(Cl)c(OCC2CCC(C(F)(F)F)CC2)n1 (stereo not shown) [Example 157, 2-(4-((5-chloro-4-((4-(trifluoromethyl)cyclohexyl)methoxy)pyrimidin-2-yl)amino)-3-methyl-1H-pyrazol-1-yl)-2-methylpropanenitrile]
< 50 | Cc1c(Nc2ncc(Cl)c(OCC3CC(F)(F)C3)n2)cnn1C1CC(C#N)C1 (stereo not shown) [Example 159, 3-(4-((5-chloro-4-((3,3-difluorocyclobutyl)methoxy)pyrimidin-2-yl)amino)-5-methyl-1H-pyrazol-1-yl)cyclobutane-1-carbonitrile]
< 50 | COC1CCC(COc2nc(Nc3cn(C(C)(C)C#N)nc3C)ncc2Cl)CC1 (stereo not shown) [Example 161, 2-(4-((5-chloro-4-((4-methoxycyclohexyl)methoxy)pyrimidin-2-yl)amino)-3-methyl-1H-pyrazol-1-yl)-2-methylpropanenitrile]
200 to 400 | COC1CCC(COc2ccnc(Nc3cn(C(C)(C)C#N)nc3C)n2)CC1 (stereo not shown) [Example 162, 2-(4-((4-((4-methoxycyclohexyl)methoxy)pyrimidin-2-yl)amino)-3-methyl-1H-pyrazol-1-yl)-2-methylpropanenitrile]
< 50 | Fc1cnc(Nc2ccc(N3CCOCC3)cc2)nc1OCC1CCNCC1F (stereo not shown) [Example 166, 5-fluoro-4-((3-fluoropiperidin-4-yl)methoxy)-N-(4-morpholinophenyl) pyrimidin-2-amine]
< 50 | CCn1cc(Nc2ncc(F)c(OC[C@H]3CC[C@H](NC(C)=O)CC3)n2)cn1 [Example 184, N-((1R,4R)-4-(((2-((1-ethyl-1H-pyrazol-4-yl)amino)-5-fluoropyrimidin-4-yl)oxy)methyl)cyclo-hexyl)acetamide]
< 50 | CC(=O)N[C@H]1CC[C@H](COc2nc(Nc3cnn(C(C)(C)C#N)c3)ncc2F)CC1 [Example 186, N-((1R,4R)-4-(((2-((1-(2-cyanopropan-2-yl)-1H-pyrazol-4-yl)amino)-5-fluoropyrimidin-4-yl)oxy)methyl)cyclo-hexyl)acetamide]
< 50 | CC(=O)N[C@H]1CC[C@H](COc2nc(Nc3cnn(CC(F)(F)F)c3)ncc2F)CC1 [Example 188, N-((1R,4R)-4-(((5-fluoro-2-((1-(2,2,2-trifluoroethyl)-1H-pyrazol-4-yl)amino)pyrimidin-4-yl)oxy)methyl)cyclo-hexyl)acetamide]
< 50 | COCCn1cc(Nc2ncc(F)c(OC[C@H]3CC[C@H](NC(C)=O)CC3)n2)cn1 [Example 191, N-((1R,4R)-4-(((5-fluoro-2-((1-(2-methoxyethyl)-1H-pyrazol-4-yl)amino)pyrimidin-4-yl)oxy)methyl)cyclo-hexyl)acetamide]
50 to 200 | CC(=O)N[C@H]1CC[C@H](COc2nc(Nc3cnn(C4COC4)c3)ncc2F)CC1 [Example 192, N-((1R,4R)-4-(((5-fluoro-2-((1-(oxetan-3-yl)-1H-pyrazol-4-yl)amino)pyrimidin-4-yl)oxy)methyl)cyclo-hexyl)acetamide]
< 50 | CC(=O)N[C@H]1CC[C@H](COc2nc(Nc3cnn(C4CCOCC4)c3)ncc2F)CC1 [Example 193, N-((1R,4R)-4-(((5-fluoro-2-((1-(tetrahydro-2H-pyran-4-yl)-1H-pyrazol-4-yl)amino)pyrimidin-4-yl)oxy)methyl)cyclo-hexyl)acetamide]

Second part, the compound before the results:

Compound | IC50 [nM]
Clc1cnc(Nc2ccc(N3CCOCC3)cc2)nc1OCC1CCOCC1 [Example 148, 5-chloro-N-(4-morpholinophenyl)-4-((tetrahydro-2H-pyran-4-yl)methoxy)pyrimidin-2-amine] | < 50
Cc1nn(C2CC(C#N)C2)cc1Nc1ncc(Cl)c(OCC2CCOC(C)(C)C2)n1 (stereo not shown) [Example 150, 3-(4-((5-chloro-4-((2,2-dimethyltetrahydro-2H-pyran-4-yl)methoxy)pyrimidin-2-yl)amino)-3-methyl-1H-pyrazol-1-yl)cyclobutane-1-carbonitrile] | 50 to 200
FC1(F)CCC(COc2nc(Nc3ccc(N4CCOCC4)cc3)ncc2Cl)CC1 [Example 153, 5-chloro-4-((4,4-difluorocyclohexyl)methoxy)-N-(4-morpholinophenyl)pyrimidin-2-amine] | 50 to 200
Cc1nn(C(C)(C)C#N)cc1Nc1ncc(Cl)c(OCC2CC(F)(F)C2)n1 [Example 154, 2-(4-((5-chloro-4-((3,3-difluorocyclobutyl)methoxy)pyrimidin-2-yl)amino)-3-methyl-1H-pyrazol-1-yl)-2-methylpropanenitrile] | < 50
Cc1nn(C(C)(C)C#N)cc1Nc1ncc(C#N)c(OCC2CC(F)(F)C2)n1 [Example 155, 2-((1-(2-cyanopropan-2-yl)-3-methyl-1H-pyrazol-4-yl)amino)-4-((3,3-difluorocyclobutyl)methoxy)pyrimidine-5-carbonitrile] | 50 to 200
COc1cnc(Nc2ccc(N3CCOCC3)cc2)nc1OCC1CCC(F)(F)CC1 [Example 156, 4-((4,4-difluorocyclohexyl)methoxy)-5-methoxy-N-(4-morpholinophenyl)pyrimidin-2-amine] | 50 to 200
Cc1nn(C(C)(C)C#N)cc1Nc1ncc(Cl)c(OCC2COC2)n1 [Example 158, 2-(4-((5-chloro-4-(oxetan-3-ylmethoxy)pyrimidin-2-yl)amino)-3-methyl-1H-pyrazol-1-yl)-2-methylpropanenitrile] | 50 to 200
Cc1nn(C2CC(C#N)C2)cc1Nc1ncc(Cl)c(OCC2CC(F)(F)C2)n1 (stereo not shown) [Example 160, 3-(4-((5-chloro-4-((3,3-difluorocyclobutyl)methoxy)pyrimidin-2-yl)amino)-3-methyl-1H-pyrazol-1-yl)cyclobutane-1-carbonitrile] | 50 to 200
Fc1cnc(Nc2ccc(N3C4CCC3COC4)cc2)nc1OCC1CCNCC1(F)F (stereo not shown) [Example 163, N-(4-(3-oxa-8-azabicyclo[3.2.1]octan-8-yl)phenyl)-4-((3,3-difluoropiperidin-4-yl)methoxy)-5-fluoropyrimidin-2-amine] | 50 to 200
CC(C)n1cc(Nc2ncc(F)c(OCC3CCNCC3(F)F)n2)cn1 (stereo not shown) [Example 164, 4-((3,3-difluoropiperidin-4-yl)methoxy)-5-fluoro-N-(1-isopropyl-1H-pyrazol-4-yl)pyrimidin-2-amine] | < 50
CC(=O)N[C@H]1CC[C@@H](COc2nc(Nc3ccc(N4CCOCC4)cc3)ncc2F)C1 [Example 178, N-((1S,3R)-3-(((5-fluoro-2-((4-morpholinophenyl)amino)pyrimidin-4-yl)oxy)methyl)cyclo-pentyl)acetamide] | 50 to 200
CC(=O)N[C@H]1CC[C@@H](COc2nc(Nc3cn(C(C)(C)C#N)nc3C)ncc2F)C1 [Example 180, N-((1S,3R)-3-(((2-((1-(2-cyanopropan-2-yl)-3-methyl-1H-pyrazol-4-yl)amino)-5-fluoropyrimidin-4-yl)oxy)methyl)cyclo-pentyl)acetamide] | < 50
CC(=O)N[C@H]1CC[C@H](COc2nc(Nc3ccc(N4C5CCC4COC5)cc3)ncc2F)CC1 [Example 181, N-((1R,4R)-4-(((2-((4-(3-oxa-8-azabicyclo[3.2.1]octan-8-yl)phenyl)amino)-5-fluoropyrimidin-4-yl)oxy)methyl)cyclo-hexyl)acetamide] | < 50
COc1cc(C(=O)N2CCOCC2)c(F)cc1Nc1ncc(F)c(OC[C@H]2CC[C@H](NC(C)=O)CC2)n1 [Example 182, N-((1R,4R)-4-(((5-fluoro-2-((5-fluoro-2-methoxy-4-(morpholine-4-carbonyl)phenyl)amino)pyrimidin-4-yl)oxy)methyl)cyclo-hexyl)acetamide] | 50 to 200
CC(=O)N[C@H]1CC[C@H](COc2nc(Nc3cnn(C)c3)ncc2F)CC1 [Example 183, N-((1R,4R)-4-(((5-fluoro-2-((1-methyl-1H-pyrazol-4-yl)amino)pyrimidin-4-yl)oxy)methyl)cyclo-hexyl)acetamide] | 50 to 200
CC(=O)N[C@H]1CC[C@H](COc2nc(Nc3cnn(C(C)C)c3)ncc2F)CC1 [Example 185, N-((1R,4R)-4-(((5-fluoro-2-((1-isopropyl-1H-pyrazol-4-yl)amino)pyrimidin-4-yl)oxy)methyl)cyclo-hexyl)acetamide] | < 50
CC(=O)N[C@H]1CC[C@H](COc2nc(Nc3cnn(C(F)(F)F)c3)ncc2F)CC1 [Example 187, N-((1R,4R)-4-(((5-fluoro-2-((1-(trifluoromethyl)-1H-pyrazol-4-yl)amino)pyrimidin-4-yl)oxy)methyl)cyclo-hexyl)acetamide] | 200 to 400
CC(=O)N[C@H]1CC[C@H](COc2nc(Nc3cnn(CCF)c3)ncc2F)CC1 [Example 189, N-((1R,4R)-4-(((5-fluoro-2-((1-(2-fluoroethyl)-1H-pyrazol-4-yl)amino)pyrimidin-4-yl)oxy)methyl)cyclo-hexyl)acetamide] | < 50
CC(=O)N[C@H]1CC[C@H](COc2nc(Nc3cn(C)nc3C)ncc2F)CC1 [Example 194, N-((1R,4R)-4-(((2-((1,3-dimethyl-1H-pyrazol-4-yl)amino)-5-fluoropyrimidin-4-yl)oxy)methyl)cyclo-hexyl)acetamide] | 50 to 200

Source: patent publication US11578061B2, “Inhibitors of LRRK2 kinase” (Halia Therapeutics, Inc., priority 2021, dated 2023)
